Laboratory results reported in article PMC12903857.

How the values were obtained:
14-3-3σ/C-RAF259 [1] = molecular target: T1, 14-3-3σ/C-RAF259 (Homo sapiens, UniProt P31947); assay: Intact mass spectrometry assay with C-RAF259 phospho-peptide; type: binding; set-up: full-length for mass spectrometry and fluorescence anisotropy assays; made in house; host or cells: E. coli Rosetta 2(DE3)pLysS (14-3-3σ); peptides from Elim Biopharmaceuticals; conditions: 1 μM compound, 100 nM 14-3-3σ, 18 µM peptide
Method: (§1) In analogy to our previous work, two orthogonal assays were used for screening (Figure S2). […] Dose responses of compounds were performed in the absence and presence of the C-RAF259 phospho-peptide to distinguish between neutral binders and cooperative molecular glues. The experiment was performed as a time course, with measurements every 8 h, after an 1 h incubation. Additionally, the compounds were tested in a fluorescence anisotropy (FA) assay in the presence of the 5-carboxyfluorescein-(FAM)-labeled C-RAF259 peptide. […] The full dose–response data for all compounds are available in the SI (Tables S2–S5, Figures S5–S8, Figures S15–S18, Figures S25–S32, Figures S37–S39). The dose–response data from both assays were also visually compared in the form of bar graphs. […] For FA experiments, the EC50 values from the overnight measurement were calculated and plotted as bar graphs showing the […] log EC50 value (pEC50). Compounds acting as MGs were expected to show increases in both types of bar graphs.
(§2) transferred in the assay plates.
(§3) The reacton mixtures were incubated
(§4) dispensed in the assay plates.
(§5) incubaton at room temperature .

14-3-3σ/C-RAF259 [2] = molecular target: T1, 14-3-3σ/C-RAF259; assay: FA protein titration, C-RAF259 peptide; conditions: appKd DMSO / appKd compound
Method: The following peptdes were used in the FA selectvity panel:
SOS1 pS1161: FITC-Ahx-PRRRPE{pS}APAESS-CONH2, TSC2 pS1254: FAM-Ahx-LY K S L { p S } V PA A S TA K-CONH2, ARHG2 pS886: FAM-Ahx-PVDPRRR{pS}LPAGDAL-CONH2.
Mass spectrometry dose response assays were performed on a Waters Acquity UPLC/ Xevo G2-XS Q-To f m a s s
samples prior to applicaton on the mass spectrometer. For 19-point MS dose responses, 50 mM compound stocks
Assay buﬀer was TRIS (10 mM, pH 8.0) and ﬁnal volume per well was 50
μL, with ﬁnal top concentraton of compounds dose response series at 1 mM.
24 μL of sample were needed for the tme-course
(BSA; Sigma-Aldrich). Final DMSO in the assay was less than 1%. Diluton series of 14-3-3 proteins or compounds
dispensed in the assay plates. […] Ea ch compound was measured in triplicates, i n two i ndependent experi ments. Fluorescence anisotropy measurements were performed directly and a€er overnight incubaton at room temperature. The high
(10 nM) and DMSO or compound (100 µM). Fluorescence anisotropy measurements were performed a€er overnight incubaton at room temperature .

14-3-3σ/C-RAF259 [3] = molecular target: T1, 14-3-3σ/C-RAF259; assay: Fluorescence anisotropy (FA) compound titration; type: binding; conditions: 10 nM C-RAF259-FAM 10-mer, 5 μΜ 14-3-3σ, overnight; read-out: Compound titrations EC50 value C-RAF259
Method: as §1, §2, §3, §4, §5

14-3-3σ = molecular target: T2, 14-3-3σ (Homo sapiens, UniProt P31947); assay: Intact mass spectrometry assay, apo (no peptide); type: binding; set-up: full-length for mass spectrometry and fluorescence anisotropy assays; made in house; host or cells: E. coli Rosetta 2(DE3)pLysS, pPROEX HTb vector; conditions: 1 μM compound, 100 nM 14-3-3σ
T2 sequence (P31947 1-248): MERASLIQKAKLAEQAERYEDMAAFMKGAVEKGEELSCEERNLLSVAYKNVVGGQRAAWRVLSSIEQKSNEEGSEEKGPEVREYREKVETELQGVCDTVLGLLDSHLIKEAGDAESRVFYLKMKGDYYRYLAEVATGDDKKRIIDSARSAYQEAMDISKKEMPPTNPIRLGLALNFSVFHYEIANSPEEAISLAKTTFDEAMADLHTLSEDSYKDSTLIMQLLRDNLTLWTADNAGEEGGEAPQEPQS
Method: as §1, §2, §3, §4, §5

Compound	% bound, C-RAF259 (11mer), 1h (14-3-3σ/C-RAF259 [1])	% bound, C-RAF259 (11mer), 8h (14-3-3σ/C-RAF259 [1])	% bound, C-RAF259 (11mer), 16h (14-3-3σ/C-RAF259 [1])	% bound, C-RAF259 (11mer), 24h (14-3-3σ/C-RAF259 [1])	Fold stabilization (100 µM compound), C-RAF259 (10mer) (14-3-3σ/C-RAF259 [2])	EC50 (14-3-3σ/C-RAF259 [3])	% bound, APO, 1h (14-3-3σ)	% bound, APO, 8h (14-3-3σ)	% bound, APO, 16h (14-3-3σ)	% bound, APO, 24h (14-3-3σ)
Cc1ccc(S(=O)(=O)N2CCC(CNC(=O)CCl)CC2)cc1 [Compound 24]	7.3%	13.7%	26.7%	51.8%	21 fold	14 ± 1 µM	0%	0.5%	0.5%	1.5%
O=C(CCl)NCC1CCN(S(=O)(=O)c2cc(F)c(Br)cc2F)CC1 [Compound 39]	39.3%	64.6%	78.1%	96.7%	7 fold	17 ± 3 µM	0%	1.9%	3.8%	3.8%
O=C(CCl)NCC1CCN(S(=O)(=O)c2ccc(F)cc2)CC1 [Compound 11]	6.9%	15%	26%	50.3%	4 fold	17 ± 3 µM	0%	1.5%	4.7%	6.9%
O=C(CCl)NCC1CCN(S(=O)(=O)c2ccc(OC(F)(F)F)cc2)CC1 [Compound 19]	20.5%	41.3%	69.5%	91.3%	14 fold	13 ± 3 µM	0%	0.5%	2.5%	6.5%
O=C(CCl)NCC1CCN(S(=O)(=O)c2ccc(Br)cc2F)CC1 [Compound 36]	20.6%	41.1%	69.5%	91.7%	18 fold	25 ± 2 µM	0%	0.9%	2.9%	4.5%
CC1(CNC(=O)CCl)CCN(S(=O)(=O)c2ccc(Br)c(F)c2)CC1 [Compound 46]	25.8%	39.4%	49%	84%	49 fold	11 ± 1 µM	0.5%	1.9%	4.7%	8.2%
O=C(CCl)N1CC2(CC(NS(=O)(=O)c3ccc(Br)c(F)c3)C2)C1 [Compound 64]	27.5%	53.6%	79%	80.8%	2 fold	15 ± 2 µM	9.9%	27.2%	47.2%	65%
COc1ccc(S(=O)(=O)N2CCC(CNC(=O)CCl)CC2)cc1F [Compound 33]	7.7%	18.5%	31.8%	50.3%	13 fold	9 ± 1 µM	0%	0%	0.9%	0.9%
O=C(CCl)N1CC2CC1CN2S(=O)(=O)c1ccc(Br)c(F)c1 (stereo not drawn) [Compound 58]	16.5%	45.2%	71.2%	80.5%	6 fold	12 ± 1 µM	4.7%	17.3%	28%	51.8%
O=C(CCl)NCC1CCN(S(=O)(=O)c2cc(F)c(Br)c(F)c2)CC1 [Compound 40]	35.9%	60.5%	78.9%	93.9%	13 fold	2 ± 1 µM	0%	0.5%	1.5%	4.7%
O=C(CCl)NCC1CCN(S(=O)(=O)c2ccc(F)cc2F)CC1 [Compound 27]	6.9%	14.1%	27.5%	50.3%		> 150 µM	1%		3.8%	5.2%
O=C(CCl)NCC1CCN(S(=O)(=O)c2cccc(F)c2)CC1 [Compound 16]	3.3%	8.2%	18%	32.4%		> 150 µM	0%	1%	1.9%	2.9%
O=C(CCl)N1CC2CCC1CC2NS(=O)(=O)c1ccc(Br)c(F)c1 (stereo not drawn) [Compound 61]	37.1%	68%	80.9%	83.3%		78 ± 7 µM	5.2%	13.3%	21.8%	36.8%
O=C(CCl)NCC1CCN(S(=O)(=O)Cc2ccc(Cl)cc2)CC1 [Compound 9]	0%	0.5%	2.9%	3.2%		> 1000 µM	0%	0%	1.5%	1.9%
O=C(CCl)NCCCC1CCN(S(=O)(=O)c2ccc(Cl)cc2)CC1 [Compound 13]	0.9%	2.9%	5.6%	14.1%		> 1000 µM	0%	1.5%	2.5%	4.3%
O=C(CCl)NCC1CCN(S(=O)(=O)Cc2ccccc2)CC1 [Compound 6]	0.9%	2.9%	6.5%	7%		> 1000 µM	0%	1%	4.7%	4.7%
O=C(CCl)NCC1CCN(S(=O)(=O)c2ccc3c(c2)OCO3)CC1 [Compound 26]	4.3%	11.3%	22.6%	34.1%		26 ± 3 µM	0%	0%	1.9%	5.2%
